Reference: US20060112439A1, “Delta opioid receptor disruptions, compositions and methods related thereto” (priority 2001, published 2006)

System: mice (F2N1 wild-type and delta-opioid receptor homozygous mutant)
Assay: Metrazol Test (seizure susceptibility; tail vein infusion of pentylenetetrazole)
Assay type: in vivo, mouse
Details: n=10, about 5 mg/ml infused via tail vein at about 0.375 ml/min
Method: A metrazol administration test can be used to screen animals for varying susceptibilities to seizures or similar events. For example, a 5 mg/ml solution of metrazol can be infused through the tail vein of a mouse at a rate of, e.g., approximately 0.375 ml/min. The infusion will cause all mice to experience seizures, followed by death. Those mice that enter the seizure stage the soonest are believed to be more prone to seizures.
To screen for phenotypes involving changes in seizure susceptibility, the Metrazol Test was be used. About 5 mg/ml of Metrazol was infused through the tail vein of the mouse at a constant rate of about 0.375 ml/min. The infusion caused all mice to experience seizures. Those mice entering the seizure stage the quickest were thought to be more prone to seizures in general.
The Metrazol test can also be used to screen for phenotypes related to epilepsy. Ten adult F2N1 wild-type control male mice and ten F2N1 homozygous mutant males were used, all derived from the same ES cell line. A fresh solution of about 5 mg/ml pentylenetetrazole in approximately 0.9% NaCl was prepared prior to testing. Mice were weighed and loosely held in a restrainer. After exposure to a heat lamp to dilate the tail vein, mice were continuously infused with the pentylenetetrazole solution using a syringe pump set at a constant flow rate. The following stages were recorded: first twitch (sometimes accompanied by a squeak), beginning of the tonic/clonic seizure, tonic extension and survival time. The dose required for each phase was determined and the latency to each phase was determined between genotypes. Alterations in any stage may indicate an overall imbalance in excitatory or inhibitory neurotransmitter levels.

[1] = F2N1 delta-opioid receptor homozygous mutant (−/−) male mice

**Q.** How did the “Dose (average ± std dev) to death” value [1] turn out when `C1CCc2nnnn2CC1` [metrazol, pentylenetetrazole] was run?
**A.** Its value is 121.96 ± 31.09 mg/kg.

**Q.** What about the “Dose (average ± std dev) to first twitch” value [1] of the same compound?
**A.** Its value is 30.97 ± 5.20 mg/kg.

**Q.** What about the “Dose (average ± std dev) to tonic extension” value [1] of the same compound?
**A.** The value was 97.59 ± 32.27 mg/kg.

**Q.** And the “Dose (average ± std dev) to tonic/clonic seizure” value [1]?
**A.** Its value is 53.48 ± 12.44 mg/kg.

**Q.** And the “Dose (average ± std dev) to death” value (F2N1 wild-type (+/+) male mice)?
**A.** The value was 181.91 ± 83.20 mg/kg.

**Q.** And the “Dose (average ± std dev) to first twitch” value (F2N1 wild-type (+/+) male mice)?
**A.** The value was 28.23 ± 5.58 mg/kg.

**Q.** What about the “Dose (average ± std dev) to tonic extension” value (F2N1 wild-type (+/+) male mice) of the same compound?
**A.** The value was 126.54 ± 23.60 mg/kg.

**Q.** And the “Dose (average ± std dev) to tonic/clonic seizure” value (F2N1 wild-type (+/+) male mice)?
**A.** The value was 39.62 ± 8.21 mg/kg.
